Experiments:
YKL-5-124 = compound: C=CC(=O)Nc1ccc(C(=O)Nc2[nH]nc3c2CN(C(=O)N[C@H](CN(C)C)c2ccccc2)C3(C)C)cc1 [YKL-5-124]; assay: increase in dead-cell fraction, 72 h; higher = more death;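 also: breast cancer cell lines in 384-well plates, stained with Hoechst plus LIVE/DEAD far red dye and imaged, cells above an LDR intensity threshold counted dead, Hoechst-negative corpses included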
BSJ-03-123 = compound: CC(=O)c1c(C)c2cnc(Nc3ccc(N4CCN(CCOCCOCCOCCNC(=O)COc5cccc6c5C(=O)N(C5CCC(=O)NC5=O)C6=O)CC4)cn3)nc2n(C2CCCC2)c1=O [BSJ-03-123]; assay: as above
[1] = compound: CC(=O)c1c(C)c2cnc(Nc3ccc(N4CCNCC4)cn3)nc2n(C2CCCC2)c1=O; assay: as above
[2] = compound: CCN1CCN(Cc2ccc(Nc3ncc(F)c(-c4cc(F)c5nc(C)n(C(C)C)c5c4)n3)nc2)CC1; assay: as above
Neratinib/HKI272 [3] = compound: T1, CCOc1cc2ncc(C#N)c(Nc3ccc(OCc4ccccn4)c(Cl)c3)c2cc1NC(=O)/C=C/CN(C)C [Neratinib/HKI272]; assay: as above
[4] = compound: CCc1cnn2c(NCc3ccc[n+]([O-])c3)cc(N3CCCC[C@H]3CCO)nc12; assay: as above
LEE011/Ribociclib = compound: CN(C)C(=O)c1cc2cnc(Nc3ccc(N4CCNCC4)cn3)nc2n1C1CCCC1 [LEE011/Ribociclib]; assay: as above
THZ531 = compound: CN(C)C/C=C/C(=O)Nc1ccc(C(=O)N2CCC[C@@H](Nc3ncc(Cl)c(-c4c[nH]c5ccccc45)n3)C2)cc1 [THZ531]; assay: as above
THZ1 [5] = compound: T2, CN(C)C/C=C/C(=O)Nc1ccc(C(=O)Nc2cccc(Nc3ncc(Cl)c(-c4c[nH]c5ccccc45)n3)c2)cc1 [THZ1]; assay: as above
Flavopiridol = compound: CN1CC[C@H](c2c(O)cc(O)c3c(=O)cc(-c4ccccc4Cl)oc23)[C@H](O)C1 [Flavopiridol]; assay: as above
Neratinib/HKI272 [6] = compound: T1, Neratinib/HKI272; assay: GR value, 72 h; higher = faster growth (1 = untreated, <0 = killing);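 also: breast cancer and non-malignant breast epithelial lines, nine half-log doses, viable cells counted by Hoechst and LIVE/DEAD dye imaging versus time-zero plates and DMSO controls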
THZ1 [7] = compound: T2, THZ1; assay: as above

Cell Line: SUM1315
- increase in dead-cell fraction (YKL-5-124; 0.001 µM): 0.0195
- increase in dead-cell fraction (YKL-5-124; 0.003162 µM): 0.0396
- increase in dead-cell fraction (YKL-5-124; 0.01 µM): 0.0503
- increase in dead-cell fraction (YKL-5-124; 0.03162 µM): 0.0215
- increase in dead-cell fraction (YKL-5-124; 0.1 µM): 0.0766
- increase in dead-cell fraction (YKL-5-124; 0.3162 µM): 0.0731
- increase in dead-cell fraction (YKL-5-124; 1 µM): 0.171
- increase in dead-cell fraction (YKL-5-124; 3.162 µM): 0.134
- increase in dead-cell fraction (YKL-5-124; 10 µM): 0.364
- increase in dead-cell fraction (BSJ-03-123; 0.001 µM): -0.0091
- increase in dead-cell fraction (BSJ-03-123; 0.003162 µM): 0.0246
- increase in dead-cell fraction (BSJ-03-123; 0.01 µM): 0.0376
- increase in dead-cell fraction (BSJ-03-123; 0.03162 µM): 0.0297
- increase in dead-cell fraction (BSJ-03-123; 0.1 µM): 0.0105
- increase in dead-cell fraction (BSJ-03-123; 0.3162 µM): -0.0013
- increase in dead-cell fraction (BSJ-03-123; 1 µM): 0.033
- increase in dead-cell fraction (BSJ-03-123; 3.162 µM): 0.03
- increase in dead-cell fraction (BSJ-03-123; 10 µM): 0.0923
- increase in dead-cell fraction ([1]; 0.0003162 µM): -0.0007
- increase in dead-cell fraction ([1]; 0.001 µM): -0.0011
- increase in dead-cell fraction ([1]; 0.003162 µM): -0.0024
- increase in dead-cell fraction ([1]; 0.01 µM): 0.0003
- increase in dead-cell fraction ([1]; 0.03162 µM): 0.0166
- increase in dead-cell fraction ([1]; 0.1 µM): 0.0188
- increase in dead-cell fraction ([1]; 0.3162 µM): 0.0295
- increase in dead-cell fraction ([1]; 1 µM): 0.0213
- increase in dead-cell fraction ([1]; 3.162 µM): 0.0282
- increase in dead-cell fraction ([2]; 0.001 µM): 0.0105
- increase in dead-cell fraction ([2]; 0.003162 µM): 0.0024
- increase in dead-cell fraction ([2]; 0.01 µM): -0.0018
- increase in dead-cell fraction ([2]; 0.03162 µM): 0.0186
- increase in dead-cell fraction ([2]; 0.1 µM): 0.0167
- increase in dead-cell fraction ([2]; 0.3162 µM): 0.025
- increase in dead-cell fraction ([2]; 1 µM): 0.0225
- increase in dead-cell fraction ([2]; 3.162 µM): 0.0197
- increase in dead-cell fraction ([2]; 10 µM): 0.132
- increase in dead-cell fraction (Neratinib/HKI272 [3]; 0.0003162 µM): 0.0036
- increase in dead-cell fraction (Neratinib/HKI272 [3]; 0.001 µM): 0.0058
- increase in dead-cell fraction (Neratinib/HKI272 [3]; 0.003162 µM): 0.0067
- increase in dead-cell fraction (Neratinib/HKI272 [3]; 0.01 µM): 0.0047
- increase in dead-cell fraction (Neratinib/HKI272 [3]; 0.03162 µM): 0.0181
- increase in dead-cell fraction (Neratinib/HKI272 [3]; 0.1 µM): 0.0402
- increase in dead-cell fraction (Neratinib/HKI272 [3]; 0.3162 µM): 0.0578
- increase in dead-cell fraction (Neratinib/HKI272 [3]; 1 µM): 0.0857
- increase in dead-cell fraction (Neratinib/HKI272 [3]; 3.162 µM): 0.0855
- increase in dead-cell fraction ([4]; 0.0001 µM): -0.0013
- increase in dead-cell fraction ([4]; 0.0003162 µM): -0.0006
- increase in dead-cell fraction ([4]; 0.001 µM): 0.0062
- increase in dead-cell fraction ([4]; 0.003162 µM): 0.0147
- increase in dead-cell fraction ([4]; 0.01 µM): 0.0232
- increase in dead-cell fraction ([4]; 0.03162 µM): 0.578
- increase in dead-cell fraction ([4]; 0.1 µM): 0.63
- increase in dead-cell fraction ([4]; 0.3162 µM): 0.64
- increase in dead-cell fraction ([4]; 1 µM): 0.599
- increase in dead-cell fraction (LEE011/Ribociclib; 0.001 µM): 0.0236
- increase in dead-cell fraction (LEE011/Ribociclib; 0.003162 µM): 0.0101
- increase in dead-cell fraction (LEE011/Ribociclib; 0.01 µM): 0.0448
- increase in dead-cell fraction (LEE011/Ribociclib; 0.03162 µM): 0.0191
- increase in dead-cell fraction (LEE011/Ribociclib; 0.1 µM): 0.054
- increase in dead-cell fraction (LEE011/Ribociclib; 0.3162 µM): 0.071
- increase in dead-cell fraction (LEE011/Ribociclib; 1 µM): 0.0703
- increase in dead-cell fraction (LEE011/Ribociclib; 3.162 µM): 0.0888
- increase in dead-cell fraction (LEE011/Ribociclib; 10 µM): 0.114
- increase in dead-cell fraction (THZ531; 0.0001 µM): 0.0119
- increase in dead-cell fraction (THZ531; 0.0003162 µM): -0.0037
- increase in dead-cell fraction (THZ531; 0.001 µM): -0.0061
- increase in dead-cell fraction (THZ531; 0.003162 µM): 0.0067
- increase in dead-cell fraction (THZ531; 0.01 µM): 0.001
- increase in dead-cell fraction (THZ531; 0.03162 µM): -0.0178
- increase in dead-cell fraction (THZ531; 0.1 µM): -0.0022
- increase in dead-cell fraction (THZ531; 0.3162 µM): 0.0155
- increase in dead-cell fraction (THZ531; 1 µM): 0.204
- increase in dead-cell fraction (THZ1 [5]; 0.0001 µM): 0.0131
- increase in dead-cell fraction (THZ1 [5]; 0.0003162 µM): -0.0262
- increase in dead-cell fraction (THZ1 [5]; 0.001 µM): -0.0208
- increase in dead-cell fraction (THZ1 [5]; 0.003162 µM): 0.0035
- increase in dead-cell fraction (THZ1 [5]; 0.01 µM): -0.0115
- increase in dead-cell fraction (THZ1 [5]; 0.03162 µM): -0.0232
- increase in dead-cell fraction (THZ1 [5]; 0.1 µM): -0.0483
- increase in dead-cell fraction (THZ1 [5]; 0.3162 µM): 0.0421
- increase in dead-cell fraction (THZ1 [5]; 1 µM): 0.61
- increase in dead-cell fraction (Flavopiridol; 0.0001 µM): 0.0039
- increase in dead-cell fraction (Flavopiridol; 0.0003162 µM): -0.0083
- increase in dead-cell fraction (Flavopiridol; 0.001 µM): 0.0048
- increase in dead-cell fraction (Flavopiridol; 0.003162 µM): 0.0087
- increase in dead-cell fraction (Flavopiridol; 0.01 µM): 0.0083
- increase in dead-cell fraction (Flavopiridol; 0.03162 µM): 0.0248
- increase in dead-cell fraction (Flavopiridol; 0.1 µM): -0.0084
- increase in dead-cell fraction (Flavopiridol; 0.3162 µM): 0.383
- increase in dead-cell fraction (Flavopiridol; 1 µM): 0.596
- GR value (Neratinib/HKI272 [6]; 0.0003162 µM): 1.07 GR
- GR value (Neratinib/HKI272 [6]; 0.001 µM): 0.992 GR
- GR value (Neratinib/HKI272 [6]; 0.003162 µM): 1.01 GR
- GR value (Neratinib/HKI272 [6]; 0.01 µM): 0.908 GR
- GR value (Neratinib/HKI272 [6]; 0.03162 µM): 0.69 GR
- GR value (Neratinib/HKI272 [6]; 0.1 µM): 0.517 GR
- GR value (Neratinib/HKI272 [6]; 0.3162 µM): 0.309 GR
- GR value (Neratinib/HKI272 [6]; 1 µM): 0.162 GR
- GR value (Neratinib/HKI272 [6]; 3.162 µM): 0.101 GR
- GR value (THZ1 [7]; 0.0001 µM): 1.24 GR
- GR value (THZ1 [7]; 0.0003162 µM): 1.06 GR
- GR value (THZ1 [7]; 0.001 µM): 1.06 GR
- GR value (THZ1 [7]; 0.003162 µM): 0.773 GR
- GR value (THZ1 [7]; 0.01 µM): 0.999 GR
- GR value (THZ1 [7]; 0.03162 µM): 0.982 GR
- GR value (THZ1 [7]; 0.1 µM): 0.978 GR
- GR value (THZ1 [7]; 0.3162 µM): 0.391 GR
- GR value (THZ1 [7]; 1 µM): -0.906 GR

Reference: the supplement of paper PMC9663587
